Source: patent publication US20260335279A1, “METHODS OF TREATING ISCHEMIA-REPERFUSION INJURIES” (University of Cincinnati, priority 2022, published 2026)

Experiments:
[1] = tested on: BCL-XL; assay: BCL-XL anti-apoptotic protein in myocardium after I/R (Western blot); assay type: in vivo, mouse (C57BL/6); conditions: ML264-treated group; 30 min ischemia, 2 h reperfusion
Procedure: (§1) The myocardial ischemia/reperfusion surgical protocol was applied as follows. Mice were anesthetized with 2% isoflurane inhalation until anesthesia was achieved. The animals' body temperature was maintained at 37 °C throughout the surgical procedure using a heating pad. A tracheal tube was placed via tracheal intubation and the respiration rate was set at 150 strokes/min with a tidal volume of 200 μL, using Minivent ventilator for mice (Model 845, Harvard Apparatus). A 1.2 cm incision was made over the left chest. After retraction of the pectoral major and minor muscles, the fourth intercostal space was exposed. […] The left anterior descending coronary artery (LAD) was then located, sutured, and ligated at a site 3-4 mm distal to the origin of the artery under the left atrium using a 6-0 silk suture. […] The mouse was then monitored during the recovery period, which was generally completed within 3 to 5 minutes. […]
(§2) Isolated myocardial tissue/isolated primary murine cardiomyocytes were homogenized in radioimmunoprecipitation assay buffer (RIPA buffer) containing protease and phosphatase inhibitors (Thermo Fischer Scientific, Cat. No.: A32959). […] Relative densitometry was determined, and the β-actin protein was used as a loading control.
(§3) In order to unravel the mechanisms of KLF5-mediated cardiotoxicity, oxidative stress levels were evaluated at early reperfusion. […]

[2] = tested on: Glut1; assay: Glut1 mRNA after I/R; assay type: in vivo, mouse; conditions: ML-264 treatment; vs I/R group treated with vehicle
Procedure: (§4) The myocardial ischemia/reperfusion surgical protocol was applied as follows. Mice were anesthetized with 2% isoflurane inhalation until anesthesia was achieved. The animals' body temperature was maintained at 37 °C throughout the surgical procedure using a heating pad. A tracheal tube was placed via tracheal intubation and the respiration rate was set at 150 strokes/min with a tidal volume of 200 μL, using Minivent ventilator for mice (Model 845, Harvard Apparatus). A 1.2 cm incision was made over the left chest. After retraction of the pectoral major and minor muscles, the fourth intercostal space was exposed. […] The mouse was then monitored during the recovery period, which was generally completed within 3 to 5 minutes. […]
(§5) Total RNA was purified from heart tissue using the TRIzol reagent according to the instructions of the manufacturer (ThermoFischer Scientific, Cat. No.: 15596018). cDNA synthesis was performed using the Applied Biosystems High Capacity cDNA Reverse Transcription Kit (ThermoFischer Scientific, Cat. No.: 4368814) from 500 ng RNA, which had been treated with DNAase I (ThermoFischer Scientific, Cat. No.: 18068015). Quantitative real-time PCR was performed with the SYBR Select Master Mix (ThermoFischer Scientific, Cat. No.: 4472903) using the manufacturer's recommendations. […]

[3] = tested on: IL-6; assay: IL-6 mRNA in ischemic myocardium; assay type: in vivo, mouse (C57BL/6); conditions: evaluated at 2 h and 24 h of reperfusion, vs vehicle
Procedure: as §4, §5

[4] = tested on: Col1a1; assay: Col1a1 mRNA in chronic model of I/R injury (real-time PCR); assay type: in vivo, mouse (C57BL/6); conditions: 4 weeks post-I/R; vs IR group treated with vehicle
Procedure: as §4, §5

[5] = tested on: NOX4; assay: NOX4 protein in myocardium after I/R (Western blot); assay type: in vivo, mouse (C57BL/6); conditions: ML264 treatment, 30 min ischemia, 2 h reperfusion
Procedure: as §1, §2, §3

[6] = tested on: Ugp; assay: Ugp mRNA expression after I/R; assay type: in vivo, mouse; conditions: ML-264 treatment
Procedure: as §4, §5

[7] = tested on: BAX; assay: BAX apoptotic protein in myocardium after I/R (Western blot); assay type: in vivo, mouse (C57BL/6); conditions: ML264-treated group; 30 min ischemia, 2 h reperfusion
Procedure: as §1, §2, §3

[8] = tested on: IL-1β; assay: IL-1β mRNA in ischemic myocardium; assay type: in vivo, mouse (C57BL/6); conditions: evaluated at 2 h and 24 h of reperfusion, vs vehicle
Procedure: as §4, §5

[9] = tested on: NOX4; assay: NOX4 mRNA in myocardium after I/R (real-time PCR); assay type: in vivo, mouse (C57BL/6); conditions: ML264 treatment; 30 min ischemia, 2 h reperfusion
Procedure: as §4, §5

[10] = tested on: KLF5; assay: KLF5 protein expression (Western blot) in cardiac tissue, I/R mice; assay type: in vivo, mouse (C57BL/6); conditions: 30 minutes of ischemia; ML264 25 mg/kg/12 h intraperitoneal
Procedure: as §1, with “suture. The heart was allowed to stabilize for 15 min and right after, ischemia was induced by tightening the suture against a small piece of polyethylene tube.” for “suture.”
as §2, with “control. […]” for “control.”

[11] = tested on: TNFα; assay: TNFα mRNA in ischemic myocardium; assay type: in vivo, mouse (C57BL/6); conditions: evaluated at 2 h and 24 h of reperfusion, vs vehicle
Procedure: as §4, §5

[12] = tested on: KLF5; assay: KLF5 suppression, mRNA (quantitative real-time PCR) in cardiac tissue, I/R mice; assay type: in vivo, mouse (C57BL/6)
Procedure: as §4, §5

[13] = tested on: Glut1; assay: GLUT1 protein levels after I/R; assay type: in vivo, mouse; conditions: ML-264 treatment; did not reach statistical significance
Procedure: as §4, §2
Finally, to test the potential involvement of GLUT1 and GLUT4 in myocardial ischemia-reperfusion injury, two compounds, namely KL-11743, a non-specific GLUT inhibitor, as well as STF-31, which is a GLUT1-specific inhibitor, were evaluated.

CN(C(=O)CNC(=O)/C=C/c1cccc(Cl)c1)C1CCS(=O)(=O)CC1 [ML264]
BCL-XL anti-apoptotic proteins [1]: upregulation
Glut1 levels (mRNA) [2]: trend towards reduced
IL-6 mRNA levels [3]: Significant suppression
mRNA levels of Col1a1 [4]: decreased
NOX4 protein levels [5]: suppressed
NOX4 levels ([5]; FIG. 5C-5E (mRNA and protein)): significant suppression
relative mRNA expression of Ugp [6]: did not result in a change
BAX apoptotic proteins [7]: suppression
IL-1β mRNA levels [8]: Significant suppression
NOX4 mRNA levels [9]: suppressed
KLF5 protein expression in cardiac tissue [10]: suppression was confirmed
TNFα mRNA levels [11]: Significant suppression
KLF5 mRNA levels (4 weeks) ([12]; 4 weeks post-ischemia-reperfusion, among the four groups): unchanged
KLF5 mRNA expression level in cardiac tissue ([12]; 30 minutes of ischemia, ML264 25 mg/kg/12 h intraperitoneal): suppression was confirmed
GLUT1 protein levels [13]: trend towards suppression
